Data taken from patent US8063071B2 (GlaxoSmithKline, LLC, priority 2007, dated 2011).
Structures can show the parent of a compound that is named as a salt.

Key:
[1] = test system: human monocyte stimulated cytokine production (TNF-α); assay: Monocyte assay (LPS-stimulated TNF-α production); type: cell-based; conditions: for inhibition at 0.3 µM: read-out: inhibition at 300 nM in the monocyte assay; for IC50: 24 h, 200 ng/mL LPS, TNF-α by ELISA
Experimental: Effect of IKK-β inhibition on human monocyte stimulated cytokine production was assessed as follows: Monocytes were isolated from heparinized whole blood by Ficoll gradient, followed by purification of CD14+ cells using MACS magnetic cell separation beads. Isolated monocytes were then adhered to 96-well culture plates at 1×10^6 cells/mL in RPMI 1640 10% FBS (JRH Biosciences, Lenexa Kans.) for 2 h. Test compounds are added to the wells 30 minutes prior to stimulation with a final vehicle concentration of 0.1% DMSO. Monocytes were activated by the addition of 200 ng/mL endotoxin (LPS; E. coli serotype 026:B6)(Sigma, St. Louis, Mo.) and incubated for 24 hrs at 37 C. Cell-free supernates were analyzed by ELISA for TNF-α using Pharmingen matched pair Abs. Viability of the cells was determined by 10% trypan blue exclusion.

[2] = molecular target: T1, Recombinant human IKKβ (residues 1-737) (Homo sapiens, UniProt O14920); assay: IKK2 assay (TR-FRET); type: biochemical; conditions: ATP 1 μM final, read-out: pIC50 against IKK2 (converted)
T1 construct: Recombinant human IKKβ (residues 1-737); GST (C); made in house
T1 sequence (O14920 1-737): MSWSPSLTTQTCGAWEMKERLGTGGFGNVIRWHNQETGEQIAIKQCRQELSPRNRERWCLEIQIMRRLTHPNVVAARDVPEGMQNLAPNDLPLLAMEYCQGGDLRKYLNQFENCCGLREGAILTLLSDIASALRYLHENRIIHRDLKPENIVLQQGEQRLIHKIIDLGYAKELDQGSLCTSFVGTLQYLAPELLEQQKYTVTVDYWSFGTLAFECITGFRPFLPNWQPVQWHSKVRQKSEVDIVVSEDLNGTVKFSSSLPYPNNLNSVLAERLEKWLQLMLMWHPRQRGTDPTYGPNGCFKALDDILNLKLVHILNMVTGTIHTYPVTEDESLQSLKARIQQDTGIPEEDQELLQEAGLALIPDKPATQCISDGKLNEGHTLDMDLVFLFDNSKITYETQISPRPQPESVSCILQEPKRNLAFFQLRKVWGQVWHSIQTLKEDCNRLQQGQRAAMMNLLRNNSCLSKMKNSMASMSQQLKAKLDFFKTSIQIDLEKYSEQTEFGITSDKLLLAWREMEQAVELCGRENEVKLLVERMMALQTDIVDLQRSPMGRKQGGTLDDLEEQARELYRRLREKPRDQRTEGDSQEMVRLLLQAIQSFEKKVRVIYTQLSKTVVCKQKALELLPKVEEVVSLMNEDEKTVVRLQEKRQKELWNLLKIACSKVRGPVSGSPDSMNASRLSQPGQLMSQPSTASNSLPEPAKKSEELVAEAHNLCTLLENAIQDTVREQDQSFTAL
Experimental: Recombinant human IKKβ (residues 1-737) was expressed in baculovirus as a C-terminal GST-tagged fusion protein, and its activity was assessed using a time-resolved fluorescence resonance energy transfer (TR-FRET) assay. Briefly, IKK2 (0.5 nM-5 nM final) diluted in assay buffer (50 mM HEPES, 10 mM MgCl2, 1 mM CHAPS pH 7.4 with 1 mM DTT and 0.01% w/v BSA) was added to wells containing various concentrations of compound or DMSO vehicle (1.7% final). The reaction was initiated by the addition of GST-IB substrate (25 nM final)/ATP (1 μM final), in a total volume of 6 μl. The reaction was incubated for 15 minutes at room temperature, then terminated by the addition of 3 μl of detection reagent in buffer containing 50 mM EDTA (100 mM HEPES pH 7.4, 150 mM NaCl, 50 mM EDTA and 0.01% w/v BSA) containing antiphosphoserine-IB-32/36 monoclonal antibody 12C2 (Cell Signalling Technology, Beverly Mass., USA) labelled with W-1024 europium chelate (Wallac OY, Turku, Finland), and an APC-labelled anti-GST antibody (Prozyme, San Leandro, Calif., USA) was added and the reaction was further incubated for 60 minutes at room temperature. The degree of phosphorylation of GST-IB was measured using a BMG Rubystar plate reader (BMG Labtech, Aylesbury, UK) as a ratio of specific 665 nm energy transfer signal to reference europium 620 nm signal.

Structure (SMILES)	IC50 [2] [µM]	further results
CCS(=O)(=O)N1CCC(c2c[nH]c3c(C(N)=O)cc(-c4cc(CNC(C)C)c5c(c4)OCC5)cc23)CC1 [Example 59, 3-[1-(ethylsulfonyl)-4-piperidinyl]-5-(4-{[(1-methylethyl)amino]methyl}-2,3-dihydro-1-benzofuran-6-yl)-1H-indole-7-carboxamide]	–	inhibition at 0.3 µM [1]: 0 to 60%
CCOCCN(C)Cc1cc(-c2cc(C(N)=O)c3[nH]cc(C4CCN(S(=O)(=O)CC)CC4)c3c2)cs1 [Example 403, 5-(5-{[[2-(ethyloxy)ethyl](methyl)amino]methyl}-3-thienyl)-3-[1-(ethylsulfonyl)-4-piperidinyl]-1H-indole-7-carboxamide]	–	IC50 [1]: ≤ 1.5 µM
CCS(=O)(=O)N1CCC(c2c[nH]c3c(C(N)=O)cc(-c4ccc5c(c4)C(NCC(C)C)CCC5)cc23)CC1 (stereo not shown) [Example 34, 3-[1-(ethylsulfonyl)-4-piperidinyl]-5-{8-[(2-methylpropyl)amino]-5,6,7,8-tetrahydro-2-naphthalenyl}-1H-indole-7-carboxamide trifluoroacetate]	–	IC50 [1]: > 1 µM
CCS(=O)(=O)N1CCC(c2c[nH]c3c(C(N)=O)cc(-c4csc(CN5CCCC5CC(C)C)c4)cc23)CC1 (stereo not shown) [Example 97, 3-[1-(ethylsulfonyl)-4-piperidinyl]-5-(5-{[2-(2-methylpropyl)-1-pyrrolidinyl]methyl}-3-thienyl)-1H-indole-7-carboxamide]	–	inhibition at 0.3 µM [1]: 0 to 60%
CCS(=O)(=O)N1CCC(c2c[nH]c3c(C(N)=O)cc(-c4cncc(CNCC5CC5)c4)cc23)CC1 [Example 173, 5-(5-{[(cyclopropylmethyl)amino]methyl}-3-pyridinyl)-3-[1-(ethylsulfonyl)-4-piperidinyl]-1H-indole-7-carboxamide]	–	inhibition at 0.3 µM [1]: 0 to 60%
CCS(=O)(=O)N1CCC(c2c[nH]c3c(C(N)=O)cc(-c4csc(CNCC(C)(C)C)c4)cc23)CC1 [Example 117, 5-(5-{[(2,2-dimethylpropyl)amino]methyl}-3-thienyl)-3-[1-(ethylsulfonyl)-4-piperidinyl]-1H-indole-7-carboxamide trifluoroacetate]	–	IC50 [1]: ≤ 1.5 µM
CCS(=O)(=O)N1CCC(c2c[nH]c3c(C(N)=O)cc(-c4cc(CNC)c(OC)c(OC)c4)cc23)CC1 [Example 54]	≤ 10	–
CCS(=O)(=O)N1CCC(c2c[nH]c3c(C(N)=O)cc(-c4ccc(N5CCOCC5)nc4)cc23)CC1 [Example 229, 3-[1-(ethylsulfonyl)-4-piperidinyl]-5-[6-(4-morpholinyl)-3-pyridinyl]-1H-indole-7-carboxamide]	≤ 10	–
CCN(C)c1ccc(-c2cc(C(N)=O)c3[nH]cc(C4CCN(S(=O)(=O)CC)CC4)c3c2)cn1 [Example 225, 5-{6-[ethyl(methyl)amino]-3-pyridinyl}-3-[1-(ethylsulfonyl)-4-piperidinyl]-1H-indole-7-carboxamide trifluoroacetate]	≤ 10	–
CCS(=O)(=O)N1CCC(c2c[nH]c3c(C(N)=O)cc(-c4cnn(CCN(C)C)c4)cc23)CC1 [Example 252, 5-{1-[2-(dimethylamino)ethyl]-1H-pyrazol-4-yl}-3-[1-(ethylsulfonyl)-4-piperidinyl]-1H-indole-7-carboxamide]	≤ 10	–
CCS(=O)(=O)N1CCC(c2c[nH]c3c(C(N)=O)cc(-c4ccc(CN[C@H](C)C(C)C)s4)cc23)CC1 [Example 183, 5-[5-({[(1R)-1,2-dimethylpropyl]amino}methyl)-2-thienyl]-3-[1-(ethylsulfonyl)-4-piperidinyl]-1H-indole-7-carboxamide]	≤ 10	–
CCS(=O)(=O)N1CCC(c2c[nH]c3c(C(N)=O)cc(-c4ccc(N(C)C)nc4)cc23)CC1 [Example 226, 5-[6-(dimethylamino)-3-pyridinyl]-3-[1-(ethylsulfonyl)-4-piperidinyl]-1H-indole-7-carboxamide trifluoroacetate]	≤ 10	–

Continued, in another order:

IC50 [2] [µM]	Structure (SMILES)	further results
≤ 10	CCS(=O)(=O)N1CCC(c2c[nH]c3c(C(N)=O)cc(-c4cc(F)cc(CNCC(C)C)c4)cc23)CC1 [Example 286, 3-[1-(ethylsulfonyl)-4-piperidinyl]-5-(3-fluoro-5-{[(2-methylpropyl)amino]methyl}phenyl)-1H-indole-7-carboxamide trifluoroacetate]	–
≤ 10	CCS(=O)(=O)N1CCC(c2c[nH]c3c(C(N)=O)cc(-c4cc(F)cc(CN5CCCC5)c4)cc23)CC1 [Example 289, 3-[1-(ethylsulfonyl)-4-piperidinyl]-5-[3-fluoro-5-(1-pyrrolidinylmethyl)phenyl]-1H-indole-7-carboxamide trifluoroacetate]	–
> 10	CCS(=O)(=O)N1CCC(c2c[nH]c3c(C(N)=O)cc(-c4cc(CN(C)C)cc(CN(C)C)c4)cc23)CC1 [Example 278, 5-{3,5-bis[(dimethylamino)methyl]phenyl}-3-[1-(ethylsulfonyl)-4-piperidinyl]-1H-indole-7-carboxamide trifluoroacetate]	–
≤ 10	CCS(=O)(=O)N1CCC(c2c[nH]c3c(C(N)=O)cc(-c4cc(F)cc(CN5CCCCC5)c4)cc23)CC1 [Example 291, 3-[1-(ethylsulfonyl)-4-piperidinyl]-5-[3-fluoro-5-(1-piperidinylmethyl)phenyl]-1H-indole-7-carboxamide trifluoroacetate]	–
≤ 10	CCS(=O)(=O)N1CCC(c2c[nH]c3c(C(N)=O)cc(-c4csc(CN(C)CCNC(C)=O)c4)cc23)CC1 [Example 410, 5-(5-{[[2-(acetylamino)ethyl](methyl)amino]methyl}-3-thienyl)-3-[1-(ethylsulfonyl)-4-piperidinyl]-1H-indole-7-carboxamide trifluoroacetate]	–
≤ 10	CCS(=O)(=O)N1CCC(c2c[nH]c3c(C(N)=O)cc(-c4cc(F)cc(CNC(C)C)c4)cc23)CC1 [Example 285, 3-[1-(ethylsulfonyl)-4-piperidinyl]-5-(3-fluoro-5-{[(1-methylethyl)amino]methyl}phenyl)-1H-indole-7-carboxamide trifluoroacetate]	–
≤ 10	CCC(CC)N1Cc2ccc(-c3cc(C(N)=O)c4[nH]cc(C5CCN(S(=O)(=O)CC)CC5)c4c3)cc2C1 [Example 423, 5-[2-(1-ethylpropyl)-2,3-dihydro-1H-isoindol-5-yl]-3-[1-(ethylsulfonyl)-4-piperidinyl]-1H-indole-7-carboxamide]	–
≤ 10	CCNCc1cc(F)cc(-c2cc(C(N)=O)c3[nH]cc(C4CCN(S(=O)(=O)CC)CC4)c3c2)c1 [Example 283, 5-{3-[(ethylamino)methyl]-5-fluorophenyl}-3-[1-(ethylsulfonyl)-4-piperidinyl]-1H-indole-7-carboxamide trifluoroacetate]	–
≤ 10	CCS(=O)(=O)N1CCC(c2c[nH]c3c(C(N)=O)cc(-c4cc(F)cc(CNC5CCC5)c4)cc23)CC1 [Example 287, 5-{3-[(cyclobutylamino)methyl]-5-fluorophenyl}-3-[1-(ethylsulfonyl)-4-piperidinyl]-1H-indole-7-carboxamide trifluoroacetate]	–
≤ 10	CCS(=O)(=O)N1CCC(c2c[nH]c3c(C(N)=O)cc(-c4ccc5c(c4)CN(CC4CC4)C5)cc23)CC1 [Example 425, 5-[2-(cyclopropylmethyl)-2,3-dihydro-1H-isoindol-5-yl]-3-[1-(ethylsulfonyl)-4-piperidinyl]-1H-indole-7-carboxamide]	–
